Literature values, collected in patent publication US20130022829A1, “OIL BORNE WOOD PRESERVING COMPOSITION FOR TREATMENT OF POLES, POSTS, PILING, CROSSTIES AND OTHER WOODED STRUCTURES” (Osmose, Inc., priority 2009, published 2013).

Test system: Poria
Details: background statement on copper soaps

Row | Compound | efficacy against copper tolerant fungi, e.g., Poria sp.
1 | CCCCC(CC)C(=O)[O-].CCCCC(CC)C(=O)[O-].[Cu+2] (centres unmarked) [Cu-octoate] | insufficient efficacy
2 | Cu-naphthenate | insufficient efficacy
